Values quoted from earlier work, collected in patent US8690839B2, “Devices for delivering a medicament and connector for same” (priority 2008, dated 2014).

Experiments:
[1] = for onset (in words): in vivo
[2] = in vivo

SMILES: CCOC(=O)c1ccc(N)cc1 [Benzocaine, benzocaine]
- onset time ([1]; topical use): about 30 seconds
- toxic dose [2]: > 200 mg

SMILES: CCCN1CCCC[C@H]1C(=O)Nc1c(C)cccc1C [Ropivacaine, ropivacaine]
- onset (in words) [1]: slow onset
- toxic dose [2]: about 175 mg

SMILES: CCCCNc1ccc(C(=O)OCCN(C)C)cc1 [Tetracaine, tetracaine]
- onset (in words) [1]: fast onset
